“Also recorded” adds a separate entry of the source.
Key:
[1] = system: 4M5.3FR+ human T cells; assay: Cell viability assay, 4M5.3FR+ human T cells; type: cell-based
[2] = target: T1, FKBPFR3GS fusion receptor (Homo sapiens, UniProt P62942); assay: Binding assay of ligand-dye on FKBPFR3GS (FF3) fusion receptor stably expressed on human T cell, flow cytometry
T1 construct: human FRa signal peptide (1-24 aa of human FRa) (N); expressed in transfected cells; host or cells: human T cells / Jurkat T cells, lentiviral transduction
T1 sequence (P62942 with tags, fused parts or gaps): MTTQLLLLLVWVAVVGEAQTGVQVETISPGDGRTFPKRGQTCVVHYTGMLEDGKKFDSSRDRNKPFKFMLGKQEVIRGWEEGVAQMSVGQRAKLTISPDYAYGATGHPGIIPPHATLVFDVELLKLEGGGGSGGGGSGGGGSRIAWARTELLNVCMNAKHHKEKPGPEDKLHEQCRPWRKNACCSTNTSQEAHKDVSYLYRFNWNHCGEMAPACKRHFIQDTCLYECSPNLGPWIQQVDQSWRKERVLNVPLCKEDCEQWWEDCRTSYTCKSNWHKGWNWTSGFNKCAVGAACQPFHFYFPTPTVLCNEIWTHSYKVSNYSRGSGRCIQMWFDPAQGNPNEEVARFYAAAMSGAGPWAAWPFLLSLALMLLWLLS
Description: For binding assay, cells were incubated with ligand-dye alone or with ligand-dye and free ligands (100×, preincubated for 30 min) for 30 min, at 4 degree. Cells were washed 3 times after incubation, and re-suspended in 2% FBS PBS, 7-AAD were added to gate out the dead cells. […] FRET is visualized by the loss of intensity of FA-Rhodamine as its energy transferred to FA-OTL38 on the same or nearby receptor, detected by BD Fortessa flow cytometer. Results were analyzed using Flow Jo software.
For binding assay, cells were incubated with ligand-dye alone or with ligand-dye and free ligands (100×, preincubated for 30 min) for 30 min, at 4 degree. Cells were washed 3 times after incubation, and re-suspended in 2% FBS PBS, 7-AAD were added to gate out the dead cells. BD Fortessa flow cytometer were used. Results were analyzed using FlowJo software.

[3] = target: T2, FKBPFR1GS fusion receptor (Homo sapiens, UniProt P62942); assay: Interference/FRET binding assay in FKBPFR1GS (FF1) fusion receptor Jurkat cells
T2 construct: human FRa signal peptide (1-24 aa of human FRa) (N); expressed in transfected cells; host or cells: Jurkat cells, lentiviral transduction
T2 sequence (P62942 with tags, fused parts or gaps): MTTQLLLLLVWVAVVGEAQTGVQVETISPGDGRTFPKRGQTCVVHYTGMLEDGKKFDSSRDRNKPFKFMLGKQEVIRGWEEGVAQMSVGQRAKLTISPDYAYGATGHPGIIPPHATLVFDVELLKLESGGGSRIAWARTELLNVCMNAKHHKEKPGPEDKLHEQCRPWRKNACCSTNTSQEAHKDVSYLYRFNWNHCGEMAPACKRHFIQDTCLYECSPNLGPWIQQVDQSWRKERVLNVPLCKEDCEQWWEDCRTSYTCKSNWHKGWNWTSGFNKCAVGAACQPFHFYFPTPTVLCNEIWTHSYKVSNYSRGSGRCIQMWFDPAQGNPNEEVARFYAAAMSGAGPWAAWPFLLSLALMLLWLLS
Description: Cells were washed 3 times after incubation, and re-suspended in 2% FBS PBS, 7-AAD were added to gate out the dead cells. […] Results were analyzed using Flow Jo software. […]

[4] = system: FMC63+4M5.3FR+hT cell towards Raji cell; assay: CAR T cell lysis effect, FMC63+4M5.3FR+ hT cell towards Raji cell; type: cell-based, human
Description: 1×10^5 CAR T and certain number of Raji cell were co-incubated in 96 well plate, according to the E:T ratio, with or without the treatment drug. After 24 h, 100 ul supernatant were taken out for LDH assay. Lysis percentage were calculated as (treatment group-CAR T only)/(maximum lysis-CAR T only) %

[5] = system: FF3+ human T cell; conditions: 100× preincubation with FA
Description: Cells were seeded to 96 well plate and incubated with different concentration of certain ligand-cytotoxic drug for 2 h, with or without 100× preincubation of the free ligand competition. After 2 h incubation, cells were washed by warm medium 3 times and replenished with fresh medium. After 72 h, cell number were tested by CellTiter-Glo® assay (G7570, Promega) or quantified by ligand-dye staining of receptor positive cell.

[6] = target: T3, FKBP51 (Homo sapiens, UniProt Q13451); conditions: read-out: KD FK506; cited from earlier work
T3 sequence (Q13451 1-457): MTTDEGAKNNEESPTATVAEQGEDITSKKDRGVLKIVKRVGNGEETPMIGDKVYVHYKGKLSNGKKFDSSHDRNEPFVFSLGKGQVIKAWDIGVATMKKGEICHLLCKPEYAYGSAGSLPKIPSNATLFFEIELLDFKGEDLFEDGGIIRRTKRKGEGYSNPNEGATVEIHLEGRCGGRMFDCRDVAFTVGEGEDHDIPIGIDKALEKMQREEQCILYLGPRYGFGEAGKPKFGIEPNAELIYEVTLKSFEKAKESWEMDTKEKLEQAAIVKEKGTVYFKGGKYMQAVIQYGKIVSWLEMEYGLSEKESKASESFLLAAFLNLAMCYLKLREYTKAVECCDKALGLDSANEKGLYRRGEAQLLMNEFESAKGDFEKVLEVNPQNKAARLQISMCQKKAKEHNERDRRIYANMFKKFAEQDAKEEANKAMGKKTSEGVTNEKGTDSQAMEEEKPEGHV

[7] = system: 4M5.3FR+ population in a mixed human T cell culture; assay: Killing of 4M5.3FR+ population in a mixed human T cell culture; type: cell-based
[8] = scFv against FITC; cited from earlier work

## FITC sodium
[1]; 100× preincubation
  competition of receptor mediated killing effect by free FITC sodium: blocks the receptor mediated killing effect

## COc1ccc(CCC(OC(=O)C2CCCCN2C(=O)C(=O)C(C)(C)C)c2cccc(NC(=O)CCC(=O)NCCOCCOCCOCCNC(=S)Nc3ccc(-c4c5ccc(=O)cc-5oc5cc(O)ccc45)c(C(=O)O)c3)c2)cc1OC (stereo not drawn) [SLF-FITC]
[2]; FKBPFR3GS fusion receptor stably expressed on human T cell, 30 min, 4 degree
  Kd: 62 nM

## OTL38
[3]; FKBPFR1GS jurkat cell, FK506-Rhodamine donor, OTL38 acceptor
  FRET: FK506-Rhodamine intensity after binding to OTL38: decreased FK506-Rhodamine intensity

## Cc1nc(Nc2ncc(C(=O)Cc3c(C)cccc3Cl)s2)cc(N2CCN(CCOC(=O)OCCSSCCNC(=S)Nc3ccc4c(c3)C(=O)OC43c4ccc(O)cc4Oc4cc(O)ccc43)CC2)n1 [FITC-Dasatinib]
[4]
  lysis effect of FMC63+4M5.3FR+ hT cell towards Raji cell: decrease the lysis effect

## CO[C@H]1C[C@@H](C)[C@@]2(O)O[C@H]1[C@H](OC)C[C@H](C)C/C(C)=C\[C@H](C/C=C/c1ccc(C(=O)NCCCOCCOCCOCCCNC(=O)c3ccc(-c4c5ccc(=[N+](C)C)cc-5oc5cc(N(C)C)ccc45)c(C(=O)O)c3)cc1)C(=O)C[C@H](O)[C@@H](C)[C@@H](/C(C)=C/[C@@H]1CC[C@@H](O)[C@H](OC)C1)CC(=O)C1CCCCN1C(=O)C2=O (stereo partly drawn) [FK506-Rhodamine]
[2]; FF3 (3GS linker) compared to FF1, 10 nM FA
  binding of FK506-Rhodamine in the presence of FA: preserves the binding

## CCC(C)(C)C(=O)C(=O)N1CCCC[C@H]1C(=O)O[C@H](CCc1ccc(OC)c(OC)c1)c1cccc(OCC(=O)O)c1 [SLF]
[2]; SLF vs FK506
  times lower binding affinity to FKBPFR fusion receptor compared to parent ligand FK506: 10 times
[2]; free SLF 100×, preincubation
  competition of SLF-FITC binding by free SLF: blocks SLF-FITC binding; also recorded: blocks this binding

## Nc1nc(=O)c2nc(CNc3ccc(C(=O)N[C@@H](CCC(=O)O)C(=O)O)cc3)cnc2[nH]1 [Folate acid]
[3]; FKBPFR1GS fusion protein
  concentration at which Folate acid totally abolishes FK506-Rhodamine binding: 50 nM
[3]; FKBPFR1GS fusion protein, lowest blocking concentration
  concentration at which Folate acid blocks the binding of FK506-Rhodamine: ≥ 10 pM
[5]
  competition of FA-Tubulysin killing effect by FA: blocks the effect

## C=CC[C@@H]1/C=C(\C)C[C@H](C)C[C@H](OC)[C@H]2O[C@@](O)(C(=O)C(=O)N3CCCC[C@H]3C(=O)O[C@H](/C(C)=C/[C@@H]3CC[C@@H](O)[C@H](OC)C3)[C@H](C)[C@@H](O)CC1=O)[C@H](C)C[C@@H]2OC [FK506]
[6]
  Kd: ~104 nM

## COc1cc2cc(c1Cl)N(C)C(=O)C[C@H](OC(=O)[C@H](C)N(C)C(=O)CCC(C)(C)SSCCNC(=S)Nc1cccc3c1C(=O)OC31c3ccc(O)cc3Oc3cc(O)ccc31)C1(C)O[C@H]1[C@H](C)C1CC(O)(NC(=O)O1)[C@H](OC)/C=C\C=C(\C)C2 (stereo partly drawn) [FITC-DM4]
[1]; 2 h incubation, read after 72 h
  killing of 4M5.3FR+ human T cells: specifically kill
[7]; 4M5.3FR+ cells, increasing concentration
  killing of 4M5.3FR+ population in mixed human T cell culture: specifically kill the 4M5.3FR+ population
[7]; 4M5.3FR- cells, high concentration, bystander effect
  killing of 4M5.3FR- cells in mixed human T cell culture: killed also through released drugs and bystander effect at high concentration

B1: 4M5.3: scFv against FITC, SEQ ID NO:19 (protein)
scFv: DVVMTQTPLSLPVSLGDQASISCRSSQSLVHSNGNTYLRWYLQKPGQSPKVLIYKVSNRVSGVPDRFSGSGSGTDFTLKINRVEAEDLGVYFCSQSTHVPWTFGGGTKLEIKSSADDAKKDAAKKDDAKKDDAKKDGGVKLDETGGGLVQPGGAMKLSCVTSGFTFGHYWMNWVRQSPEKGLEWVAQFRNKPYNYETYYSDSVKGRFTISRDDSKSSVYLQMNNLRVEDTGIYYCTGASYGMEYLGQGTSVTVSS
modifications: A synthetic scFv against FITC 4M5.3(Kd = 200pM)
[8]
  Kd: 0.2 nM
